# Patent US20090022714A1, “Combination methods of inhibiting tumor growth with a vascular endothelial growth factor receptor antagonist” (ImClone Systems, Inc., priority 2001, published 2009)
# Biological target: T1, KDR (VEGFR-2) (Homo sapiens, UniProt P35968)
# T1 construct: the cDNA for KDR (VEGFR-2) extracellular domain is fused in-frame with the cDNA for human placental AP; made in house; host or cells: stably transfected NIH 3T3 cells, purified from supernatant on anti-AP antibody
# Assay: BIAcore analysis of p1C11 scFv, c-p1C11 and VEGF
# Assay type: binding
# Protocol: The binding kinetics of antibodies to KDR (VEGFR-2) were measured using BIAcore biosensor (Pharmacia Biosensor). […] Sensorgrams were obtained at each concentration and were evaluated using a program, BIA Evaluation 2.0, to determine the rate constants kon and koff. Kd was calculated as the ratio of rate constants koff/kon.
# T1 sequence (P35968 20-764 limits assumed): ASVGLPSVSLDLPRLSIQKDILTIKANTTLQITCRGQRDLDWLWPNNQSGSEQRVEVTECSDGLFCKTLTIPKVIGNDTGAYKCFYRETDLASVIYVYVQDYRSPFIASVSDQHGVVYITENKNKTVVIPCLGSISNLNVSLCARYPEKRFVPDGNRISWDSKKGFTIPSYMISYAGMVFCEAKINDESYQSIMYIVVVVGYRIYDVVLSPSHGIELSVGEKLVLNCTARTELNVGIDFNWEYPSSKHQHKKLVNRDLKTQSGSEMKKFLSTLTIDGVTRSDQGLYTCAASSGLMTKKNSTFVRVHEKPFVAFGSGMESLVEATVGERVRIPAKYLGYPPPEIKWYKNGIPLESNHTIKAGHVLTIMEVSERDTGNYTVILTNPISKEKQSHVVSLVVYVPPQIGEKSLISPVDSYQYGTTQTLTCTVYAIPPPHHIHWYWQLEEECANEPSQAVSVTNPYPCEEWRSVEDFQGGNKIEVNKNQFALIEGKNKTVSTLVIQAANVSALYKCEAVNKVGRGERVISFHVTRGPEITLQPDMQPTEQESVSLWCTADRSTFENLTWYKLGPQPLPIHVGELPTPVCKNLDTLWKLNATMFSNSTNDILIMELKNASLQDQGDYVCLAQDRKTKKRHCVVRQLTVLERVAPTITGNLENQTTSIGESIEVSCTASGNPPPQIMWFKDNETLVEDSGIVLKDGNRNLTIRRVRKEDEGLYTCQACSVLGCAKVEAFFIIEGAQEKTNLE
substance,measurement,value
VEGF [reference compound],koff,1.81 10^−4 s^−1
same,kon,1.87 10^5 M^−1s^−1
